These results are taken from ChEMBL document CHEMBL5500337, “Synthesis and anti-liver fibrosis activity of imidazole and thiazole compounds containing amino acids” (Eur J Med Chem, 2024).

pIC50: −log10 of the molar value. Calls of active or inactive are those of the source. The calls are words filed in the database; no cut-off is given here. Bounds are passed on as bounds.

Data set [1] deals with LX-2. Briefly: Anti-fibrotic activity in human LX-2 cells assessed as reduction in alpha-SMA protein expression at 5 uM preincubated with compound for 1 hrs followed by TGFbeta addition and measured after 24 hrs by Western blot analysis. In kind it is functional, cell-based. The settings on record: time 25.0 hrs.
The target of data set [2] is Mitogen-activated protein kinase 14 (Homo sapiens, UniProt Q16539). Put plainly: Inhibition of human recombinant p38alpha expressed in Escherichia coli incubated for 60 mins in presence of ATP by microplate scintillation counter.
Data set [3] has as its system LX-2. Briefly: Cytotoxicity against human LX-2 cells assessed as reduction in cell viability at 100 uM incubated for 24 hrs by MTT assay. In kind it is toxicity, cell-based. The conditions noted are these: lx-2, 24 h.
Data set [4] relates to LX-2. Put plainly: Cytotoxicity against human LX-2 cells assessed as reduction in cell viability at 6.25 uM incubated for 24 hrs by MTT assay. The settings on record: lx-2, 24 h. In kind it is toxicity, cell-based.
Data set [5] deals with LX-2. Briefly: Anti-fibrotic activity in human LX-2 cells assessed as reduction in alpha-SMA protein expression at 20 uM preincubated with compound for 1 hrs followed by TGFbeta addition and measured after 24 hrs by Western blot analysis. The settings on record: time 25.0 hrs. In kind it is functional, cell-based.
Data set [6] concerns LX-2. Put plainly: Anti-fibrotic activity in human LX-2 cells assessed as reduction in collagen I protein expression at 20 uM preincubated with compound for 1 hrs followed by TGFbeta addition and measured after 24 hrs by Western blot analysis. In kind it is functional, cell-based. The conditions noted are these: time 25.0 hrs.
In data set [7] the test system is LX-2. Put plainly: Anti-fibrotic activity in human LX-2 cells assessed as inhibition of alpha-SMA mRNA expression at 5 uM preincubated with compound for 1 hrs followed by TGFbeta addition and measured after 24 hrs by RT-PCR analysis. It counts as functional, cell-based. The conditions noted are these: time 25.0 hrs.
The subject of data set [8] is LX-2. Put plainly: Cytotoxicity against human LX-2 cells assessed as reduction in cell viability upto 50 uM incubated for 24 hrs by MTT assay. It counts as toxicity, cell-based. The conditions noted are these: lx-2, 24 h.
The test system of data set [9] is LX-2. Put plainly: Anti-fibrotic activity in human LX-2 cells assessed as inhibition of alpha-SMA expression preincubated with compound for 1 hrs followed by TGFbeta addition and measured after 24 hrs by DAPI staining based confocal laser scanning microscopic analysis. It counts as functional, cell-based. The settings on record: dose 5-20 µM, time 25.0 hrs.
Data set [10] in a line: AUC (0 to t) in male Sprague-Dawley rat at 4 mg/kg, iv measured after 8 hrs by UPLC-MS/MS analysis. It counts as ADME, organism-based. The conditions noted are these: in vivo.
Data set [11] is described as follows: AUC (0 to infinity) in male Sprague-Dawley rat at 4 mg/kg, iv measured after 8 hrs by UPLC-MS/MS analysis. In kind it is ADME, organism-based. The conditions noted are these: in vivo.
A short description of data set [12]: MRT (0 to t) in male Sprague-Dawley rat at 4 mg/kg, iv measured after 8 hrs by UPLC-MS/MS analysis. The settings on record: in vivo. It counts as ADME, organism-based.
A short description of data set [13]: Half-life in male Sprague-Dawley rat at 4 mg/kg, iv measured after 8 hrs by UPLC-MS/MS analysis. It counts as ADME, organism-based. The settings on record: in vivo.
A short description of data set [14]: Tmax in male Sprague-Dawley rat at 4 mg/kg, iv measured after 8 hrs by UPLC-MS/MS analysis. It counts as ADME, organism-based. The settings on record: in vivo.
Data set [15] in a line: Cmax in male Sprague-Dawley rat at 4 mg/kg, iv measured after 8 hrs by UPLC-MS/MS analysis. The conditions noted are these: in vivo. It counts as ADME, organism-based.
Data set [16] is described as follows: Clearance in male Sprague-Dawley rat at 4 mg/kg, iv measured after 8 hrs by UPLC-MS/MS analysis. It counts as ADME, organism-based. The settings on record: in vivo.
Data set [17] is described as follows: Oral bioavailability in male Sprague-Dawley rat at 15 mg/kg measured after 8 hrs by UPLC-MS/MS analysis. It counts as ADME, organism-based. The settings on record: in vivo.
Data set [18] is described as follows: AUC (0 to t) in male Sprague-Dawley rat at 15 mg/kg, po measured after 8 hrs by UPLC-MS/MS analysis. The settings on record: in vivo. It counts as ADME, organism-based.
Data set [19] in a line: AUC (0 to infinity) in male Sprague-Dawley rat at 15 mg/kg, po measured after 8 hrs by UPLC-MS/MS analysis. In kind it is ADME, organism-based. The settings on record: in vivo.
A short description of data set [20]: MRT (0 to t) in male Sprague-Dawley rat at 15 mg/kg, po measured after 8 hrs by UPLC-MS/MS analysis. The settings on record: in vivo. It counts as ADME, organism-based.
Data set [21] is described as follows: Half-life in male Sprague-Dawley rat at 15 mg/kg, po measured after 8 hrs by UPLC-MS/MS analysis. It counts as ADME, organism-based. The conditions noted are these: in vivo.
A short description of data set [22]: Tmax in male Sprague-Dawley rat at 15 mg/kg, po measured after 8 hrs by UPLC-MS/MS analysis. It counts as ADME, organism-based. The conditions noted are these: in vivo.
Data set [23] can be described thus: Cmax in male Sprague-Dawley rat at 15 mg/kg, po measured after 8 hrs by UPLC-MS/MS analysis. It counts as ADME, organism-based. The settings on record: in vivo.
The nature of data set [24]: Clearance in male Sprague-Dawley rat at 15 mg/kg, po measured after 8 hrs by UPLC-MS/MS analysis. It counts as ADME, organism-based. The settings on record: in vivo.
The subject of data set [25] is LX-2. Put plainly: Cytotoxicity against human LX-2 cells assessed as reduction in cell viability upto 100 uM incubated for 24 hrs by MTT assay. In kind it is toxicity, cell-based. The settings on record: lx-2, 24 h.

Mitogen-activated protein kinase 14, sequence (Q16539 whole entry): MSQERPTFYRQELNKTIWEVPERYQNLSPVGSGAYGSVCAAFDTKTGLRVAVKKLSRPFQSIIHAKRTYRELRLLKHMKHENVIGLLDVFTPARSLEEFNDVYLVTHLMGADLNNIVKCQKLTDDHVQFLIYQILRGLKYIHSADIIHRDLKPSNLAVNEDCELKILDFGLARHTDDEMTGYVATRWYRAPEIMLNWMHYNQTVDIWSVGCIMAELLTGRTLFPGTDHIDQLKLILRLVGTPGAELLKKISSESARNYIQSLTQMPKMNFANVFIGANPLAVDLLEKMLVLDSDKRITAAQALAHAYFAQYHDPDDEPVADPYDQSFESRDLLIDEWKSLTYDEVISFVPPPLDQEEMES

Consider `Cc1cccc(-c2nn3c(c2-c2ccnc4ccc(C(N)=O)cc24)CCC3)n1`, for which, in the data set with LX-2 [1], the result was Active.

For the compound `Cc1cccc(-c2nc(NC(=O)[C@@H](N)Cc3ccccc3)sc2-c2ccc3ncnn3c2)n1`, the negative logarithm of the IC50 (pIC50) in data set [2] is under 5.52.

For the compound `Cc1cccc(-c2nc(NC(=O)[C@@H]3CCCCN3)sc2-c2ccc3ncnn3c2)n1`, the negative-log IC50 (pIC50) in data set [2] was under 5.52.

Take `Cc1cccc(-c2nc(NC(=O)[C@H](N)Cc3ccccc3)sc2-c2ccc3ncnn3c2)n1`: in data set [2], the pIC50 is under 5.52.

Regarding `Cc1cccc(-c2[nH]c(CNC(=O)[C@@H](N)CC(C)C)nc2-c2ccc3ncnn3c2)n1`, the negative-log IC50 (pIC50) in data set [2] was under 5.52.

Consider `Cc1cccc(-c2[nH]c(CNC(=S)[C@H](N)Cc3ccccc3)nc2-c2ccc3ncnn3c2)n1`, for which, in [2], the pIC50 is under 6.00.

Turning to `Cc1cccc(-c2nc(NC(=O)[C@H](N)CC(C)C)sc2-c2ccc3ncnn3c2)n1`, the negative-log IC50 (pIC50) in data set [2] was under 5.52. Moreover, the Activity result in the data set with LX-2 [3] was “Toxic”; in the data set on LX-2 [4], “Non-Toxic”. Also, the result in the data set with LX-2 [5], in the data set on LX-2 [6] and in the data set with LX-2 [7] was Active.

As for `Cc1cccc(-c2[nH]c(CNC(=O)[C@H](N)Cc3ccccc3)nc2-c2ccc3ncnn3c2)n1`, the figures for the Activity entry in the data set on LX-2 [8] and in the data set with LX-2 [9] were “Non-Toxic” and “Dose-Dependent Effect”, respectively. Further, the result in the data set with LX-2 [5], with LX-2 [6] and with LX-2 [7] was Active. In addition, the area under the curve AUC(0-t) at 8 h in data set [10] turned out to be 12500 ng·h/mL; in data set [18], 1220 ng·h/mL. In addition, the AUC in [11] was found to be 12802 ng·h/mL; in data set [19], 2667 ng·h/mL. In addition, the mean residence time MRT last at 8 h stood at 1.01 h in data set [12] and 2.79 h in [20]. In addition, the half-life in data set [13] was 2.24 h; in data set [21] it was 9.14 h. The time to peak (Tmax) in data set [14] was 0 h; in data set [22], 6.6 min. Besides, the Cmax in [15] came out at 43100 ng/mL; in [23] it was 1390 ng/mL. The same compound had a clearance in data set [16] of 5.23 mL/min/kg. Besides, the F in data set [17] amounted to 2.59%. The same compound had a CL/F in data set [24] of 109 mL/min/kg.

As for `Cc1cccc(-c2nc(NC(=O)[C@@H](N)CC(C)C)sc2-c2ccc3ncnn3c2)n1`, the pIC50 in [2] was under 6.00. For the same compound, the Activity entry with LX-2 [25] is “Non-Toxic”. Moreover, the outcome with LX-2 [5], in the data set with LX-2 [6] and with LX-2 [7] was Active.

Turning to `Cc1cccc(-c2nc(NC(=O)[C@H](C)N)sc2-c2ccc3ncnn3c2)n1`, the pIC50 in data set [2] was under 6.00.

On to `Cc1cccc(-c2[nH]c(CNC(=O)[C@@H]3CCCCN3)nc2-c2ccc3ncnn3c2)n1`, for which the pIC50 in [2] was under 5.52.

As to `Cc1cccc(-c2[nH]c(CNC(=O)[C@H](C)N)nc2-c2ccc3ncnn3c2)n1`, in [2], the pIC50 was under 5.52.

On to `Cc1cccc(-c2[nH]c(CNC(=O)[C@H]3CCCCN3)nc2-c2ccc3ncnn3c2)n1`, for which the pIC50 in [2] is under 6.00.

On to `Cc1cccc(-c2nc(NC(=S)[C@@H](N)CC(C)C)sc2-c2ccc3ncnn3c2)n1`, for which the pIC50 in data set [2] is under 6.00.

On to `Cc1cccc(-c2nc(NC(=S)[C@H](N)CC(C)C)sc2-c2ccc3ncnn3c2)n1`, for which the pIC50 in data set [2] was under 6.00.

As for `Cc1cccc(-c2[nH]c(CNC(=S)[C@@H](N)Cc3ccccc3)nc2-c2ccc3ncnn3c2)n1`, in data set [2], the negative-log IC50 (pIC50) is under 5.52.

Consider `Cc1cccc(-c2nc(NC(=O)[C@H]3CCCCN3)sc2-c2ccc3ncnn3c2)n1`, for which, in data set [2], the pIC50 is under 5.52.

On to `Cc1cccc(-c2[nH]c(CNC(=O)[C@H](N)CC(C)C)nc2-c2ccc3ncnn3c2)n1`, for which the pIC50 in data set [2] was under 5.52.
